Columns and labels:
CgtE (CJL-107) = assay: Substrate specificity of CgtE (CJL-107), acceptor and donor substrates; type: biochemical, Campylobacter jejuni LIO87; conditions: for Activity: enzyme CgtE (CJL-107)
Source text: A nucleic acid encoding a CgtE polypeptide, or a subsequence thereof, can be characterized by assaying for the expressed product. Assays based on the detection of the physical, chemical, or immunological properties of the expressed protein can be used. For example, one can identify a cloned CgtE nucleic acid B, by the ability of a protein encoded by the nucleic acid to catalyze the transfer of a galactose moiety from a donor substrate to an acceptor substrate. In one method, capillary electrophoresis is employed to detect the reaction products. This highly sensitive assay involves using either saccharide or disaccharide aminophenyl derivatives which are labeled with fluorescein as described in Wakarchuk et al. (1996) J. Biol. Chem. 271 (45): 28271-276. To assay for CgtE activity, Galα-Lac-FCHASE or GalNAc-α-FCHASE is used as a substrate. The reaction products of other glycosyltransferases can be detected using capillary electrophoresis, e.g., to assay for a Neisseria lgtC enzyme, either FCHASE-AP-Lac or FCHASE-AP-Gal can be used, whereas for the Neisseria lgtB enzyme an appropriate reagent is FCHASE-AP-GlcNAc (Wakarchuk, supra). To assay for α2,8-sialyltransferase, GM3-FCHASE is used as a substrate. See, e.g., U.S. Pat. No. 6,503,744, which is herein incorporated by reference. Other methods for detection of oligosaccharide reaction products include thin layer chromatography and GC/MS and are disclosed in U.S. Pat. No. 6,503,744, which is herein incorporated by reference.
CgtE used both Galα-Lac-FCHASE and GalNAc-α-FCHASE as acceptor substrate. CgtE enzymatic activity was higher when Galα-Lac-FCHASE was used as the acceptor substrate.

CgtE = assay: Characterization of CgtE enzymatic activity (pH, divalent cations, truncation); type: biochemical, Campylobacter jejuni LIO87; conditions: divalent cations necessary for activity
Source text: CgtE enzymatic activity was characterized further. CgtE activity was optimal from pH 7 to 7.5.

Sequence of CgtE (CJL-107) (as listed by the source): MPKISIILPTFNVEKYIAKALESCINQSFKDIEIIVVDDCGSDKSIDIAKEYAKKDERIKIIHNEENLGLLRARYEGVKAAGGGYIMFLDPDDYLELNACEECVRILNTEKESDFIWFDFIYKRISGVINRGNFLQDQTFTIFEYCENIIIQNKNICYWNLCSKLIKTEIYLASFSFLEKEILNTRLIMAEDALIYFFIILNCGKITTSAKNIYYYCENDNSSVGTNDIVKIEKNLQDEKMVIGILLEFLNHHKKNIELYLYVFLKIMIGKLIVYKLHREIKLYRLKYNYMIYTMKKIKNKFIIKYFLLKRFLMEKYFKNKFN

Compound: GalNAc-α-FCHASE
- Activity (CgtE (CJL-107); donor UDP-Gal): 0.6 mU/mL
- Activity (CgtE (CJL-107); donor UDP-GalNAc): 0.3 mU/mL

Compound: [Cl][Mn][Cl] [MnCl2]
- CgtE activity with divalent cation relative to MgCl2 (CgtE): two-fold higher

Compound: Galα-Lac-FCHASE
- CgtE enzymatic activity, comparison of acceptor substrates (CgtE (CJL-107); Galα-Lac-FCHASE versus GalNAc-α-FCHASE as acceptor): higher
- Activity (CgtE (CJL-107); donor UDP-Gal): 7.0 mU/mL
- Activity (CgtE (CJL-107); donor UDP-GalNAc): 63.5 mU/mL
